{"source": "patent EP0835604A1", "about": "“Halopropargyl compounds as marine antifouling agents” (ROHM AND HAAS COMPANY, priority 1996, dated 1998)", "key": {"Artemia": {"test_system": "Artemia", "assay": "Toxicity to Artemia nauplii in ASTM sea water, 96 well plate serial dilution", "type": "in vivo, Artemia salina", "conditions": "24 Hours; highest dilution in which all of the nauplii are dead; 25 °C", "experimental": "Tests were conducted to determine the toxicity of the marine antifouling agents of the invention to Artemia. Artemia are indicative of hard fouling organisms.\nSubstitute ocean water was prepared following ASTM Method D 1141-90. The water was sterilized by filtration through a 0.22 micron cellulose acetate membrane filter. San Francisco Bay Brand® Artemia salina cysts were purchased from a local aquarium supply store. The cysts were hatched in a 250 mL Erlenmeyer flask. The Artemia cysts (0.2 g) were weighed into a sterilized flask. One hundred mL of sterile ASTM sea water was added to the flask. The flask was placed on an orbital shaker set at approximately 150 rotations per minute and 28 °C. After 24 hours, the contents of the flask were poured into a separatory funnel. The egg shells were separated from the Artemia nauplii (larvae), as the shells floated to the top. The nauplii were returned to the flask for another 24 hours shaking. The inoculum was prepared by pouring the nauplii into a crystallizing dish 48 hours after the cysts were originally placed on the shaker. After the nauplii congregated, they were taken up in a sterile serological pipette and transferred into another crystallizing dish. […] The number of nauplii in 3 to 4 wells was counted under a microscope. […]\nPlates were read under a low magnification microscope 24 and 48 hours after the nauplii were added to the plate. […]"}, "[1]": {"test_system": "Amphora coffeaeformis var. perpusilla", "assay": "Toxicity to Amphora: growth inhibition by chlorophyll a concentration", "type": "cell-based", "conditions": "96 hours at 20 °C, % inhibition of the mean control; for EC 50: dose effective at preventing 50% growth; for EC 100: dose effective at preventing 100% growth", "experimental": "Tests were conducted to determine the toxicity of the marine antifouling agents of the invention to Amphora. Amphora are indicative of soft fouling organisms. Amphora coffeaeformis var. perpusilla was isolated from a natural biofilm and cultured axenically in Guillard's F2 medium. A log phase culture of Amphora was diluted with the F2 medium to give a chlorophyll a concentration of 0.25 µg/mL. Chlorophyll a was measured by passing a measured volume (FV) of cell culture through a 3 µm pore, 25 mm diameter cellulose nitrate filter. The filter plus trapped algal cells was transferred to a glass tube. A measured volume (SV) of DMSO solvent was added to the glass tube. The tubes were incubated for 1.5 hours in darkness. After incubation, the absorbance of the sample was read in a spectrophotometer at 630 and 664 nm against a DMSO/filter blank. The chlorophyll a concentration can be calculated using the following equation: Chlorophylla(µg/mL) = 11.47 x Abs664 - 0.4 x Abs630 x SV/FV [formula] Ten mL of the diluted culture was pipetted into glass tubes. Ten µL of marine antifouling agent or, in the case of controls, DMF was added to each glass tube. The tubes were incubated on an illuminated orbital shaker at 20 °C for 96 hours before the chlorophyll a concentration of each tube was measured Three replicates of each treatment were used. The effects of marine antifouling agents are calculated as % inhibition of the mean control. The EC 50 is the dose effective at preventing 50% growth. The EC 100 is the dose effective at preventing 100% growth."}}}
{"smiles": "CCCCCCCC[N+](CC#CBr)(CCCCCCCC)CCCCCCCC.O=S(=O)([O-])c1ccccc1", "note": "[Compound 18, trioctyl-(3-bromopropargyl)ammonium benzenesulfonate]", "values": [{"measurement": "Artemia LC 100", "setting": "Artemia", "result": "<8", "unit": "ppm"}]}
{"smiles": "O=c1oc2ccccc2n1CC#CI", "note": "[Compound 146, 3-(3-iodopropargyl)-2-benzoxazolone]", "values": [{"measurement": "EC 50", "setting": "[1]", "result": 3, "unit": "ppm"}, {"measurement": "EC 100", "setting": "[1]", "result": 20, "unit": "ppm"}]}
{"smiles": "CC1(C)C(=O)N(Cc2ccccc2)C(=O)N1CC#CI", "note": "[Compound 138, 1-(3-iodopropargyl)-3-benzyl-5,5-dimethylhydantoin]", "values": [{"measurement": "EC 50", "setting": "[1]", "result": 2.5, "unit": "ppm"}, {"measurement": "EC 100", "setting": "[1]", "result": 20, "unit": "ppm"}]}
{"smiles": "CCCCCCCCCCCCCC[N+]1(CC#CI)CCCC1.Cc1ccc(S(=O)(=O)[O-])cc1", "note": "[Compound 36, 1-tetradecyl-1-(3-iodopropargyl)-pyrrolidinium 4-methylbenzenesulfonate]", "values": [{"measurement": "EC 50", "setting": "[1]", "result": 1.9, "unit": "ppm"}, {"measurement": "EC 100", "setting": "[1]", "result": 5, "unit": "ppm"}, {"measurement": "Artemia LC 100", "setting": "Artemia", "result": 1, "unit": "ppm"}]}
